Four molecules from BindingDB's records for patent US12297186 (Agomab Spain, S.L.U., 2025) can be followed below.

Structures are written as SMILES.

The term IC50 denotes the concentration that inhibits the measured activity by half.

In the experiment the target is T1, TGF-beta receptor type-1 (Homo sapiens, UniProt P36897).
T1 sequence (P36897 whole entry): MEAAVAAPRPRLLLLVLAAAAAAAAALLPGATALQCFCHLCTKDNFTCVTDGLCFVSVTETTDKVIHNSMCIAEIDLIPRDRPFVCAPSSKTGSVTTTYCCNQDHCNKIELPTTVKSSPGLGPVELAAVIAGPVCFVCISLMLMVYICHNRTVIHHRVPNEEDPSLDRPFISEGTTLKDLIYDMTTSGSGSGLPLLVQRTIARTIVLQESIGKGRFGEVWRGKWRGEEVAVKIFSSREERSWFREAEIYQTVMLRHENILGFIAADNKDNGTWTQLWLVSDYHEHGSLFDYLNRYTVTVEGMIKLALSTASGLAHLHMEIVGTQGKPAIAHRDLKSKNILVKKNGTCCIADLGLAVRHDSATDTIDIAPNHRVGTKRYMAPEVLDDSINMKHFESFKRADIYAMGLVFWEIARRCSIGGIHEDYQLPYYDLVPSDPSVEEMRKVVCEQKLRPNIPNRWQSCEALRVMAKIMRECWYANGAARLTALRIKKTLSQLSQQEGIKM
The experiment can be described thus: In Vitro Enzyme Assay. How it is done: Human TGFβl R-1 inhibition experiments were carried out in a white 384-microplate low flange (Corning 3572) with ADP-Glo kinase Assay Kit (Promega V9101) and TGβR-1 Kinase Enzyme System (Promega V4092). […] The reaction mixture was incubated in gentle shaking for 120 min at RT, after incubation of 10 μL of ADP-Glo Reagent was added and incubated in gentle shaking for 40 min at RT. 20 μL of Kinase Detection Reagent was added and plate was incubated in gentle shaking for 30 min at RT. Luminiscence (1000 ms) was measured in Perkin Elmer EnSpire Multimode plate reader.

Take `N#CC1C=C(CNC(=O)Cn2cc(-c3ccnc4ccccc34)c(-c3ccccn3)n2)C=CC1` (centres undefined) [US12297186, Example 13]: the IC50 result is “in the range around 450 nM”.

Take `CC1C=C(CNC(=O)Cn2cc(-c3ccnc4ccccc34)c(-c3ccccn3)n2)C=CC1` (centres undefined) [US12297186, Example 10]: the IC50 entry is “in the range around 450 nM”. With `O=C(Cn1cc(-c2ccnc3ccccc23)c(-c2ccccn2)n1)NCC1=CC(Cl)CC=C1` (centres undefined) [US12297186, Example 12] the entry was “in the range around 450 nM”. On to `O=C(Cn1cc(-c2ccnc3ccccc23)c(-c2ccccn2)n1)NCC1=CC(F)CC=C1` (centres undefined) [US12297186, Example 11], for which the IC50 result was “in the range around 450 nM”.
